# Results taken from ChEMBL document CHEMBL1123486, “Probes for narcotic receptor mediated phenomena. 9. Synthesis of (+/-)-(3 alpha,6a alpha,11a beta)-1,3,4,5,6,11a-hexahydro-2-methyl-2H-3,6a- methanobenzofuro[2,3-c]azocin-10-ol, an oxide-bridged 5-(m-hydroxyphenyl)morphan” (J Med Chem, 1986).
# Target: Opioid receptor (Rattus norvegicus, UniProt P33533+P34975+P33535)
# Experiment: Binding affinity towards opioid receptor
# Format: protein assay
row,Compound,IC50
1,CN1CC[C@@]23CC1CC[C@@H]2Oc1c(O)cccc13,1766 nM
2,CN1CC2Oc3cc(O)ccc3[C@@]23CCCC1C3 (stereo partly drawn),1000 nM
3,CN1CC[C@]23CCCC1[C@H]2Oc1c(O)cccc13,96 nM
